Reference: PMC12677652, “Procyanidin B3 and Its Derivatives Alleviate Neuronal Injury by Targeting G3BP1 for Ischemic Stroke Therapy” (Advanced Science, 2025)

What was measured:
[1] = system: Primary rat cortical neurons; test: Cytotoxicity (50% cytotoxic concentration) by CCK-8 assay; assay type: cell-based; settings: 24 h exposure
Experimental: Additionally, we investigated the effects of PB3, 6c, and EDA on apoptosis at a concentration of 50 µM. […] Therefore, the improvement in target accessibility could be one of the main reasons for the enhanced activity of 6c. The binding mode of 6c and the NTF2L domain of G3BP1 was analyzed by molecular docking (Figure S10B, Supporting Information). […] Cytotoxicities of 1 and 6c were determined by the detection of 50% cytotoxic concentration using the CCK‐8 assay. Primary rat cortical neurons ^[ [10] ^] were exposed to 200 µM gradient concentrations of compounds for 24 h.

[2] = system: tMCAO mice; test: tMCAO model in mice (neurological deficit score, infarct volume, apoptosis, SG level); assay type: in vivo; settings: for SG levels in the ischemic cortex / ischemic brain tissue: 48 mg kg^−1, i.p.
Experimental: Mice were kept anesthetized during surgery with 1% pentobarbital sodium (50 mg kg^−1, Sigma‐Aldrich, USA) by i.p. injection. Transient ischemia was induced by using the suture occlusion technique according to our previous studies.^[ [10] ^] Expose the common carotid artery area, insert a 6–0 sized silicon rubber‐coated filament into the left internal carotid artery until it reaches the approximate branch of the left middle cerebral artery, and leave it for 1–1.5 h to block blood flow. Then, the suture and the filament were removed, and the wounds were sutured. 24 h after the operation, a series of phenotypic evaluations was conducted on each mouse. The Bederson score was applied according to our previous studies.^[ [10] ^]
Apoptosis level was evaluated by TUNEL staining and flow cytometry. For TUNEL staining, HT22 cells were treated with 4% paraformaldehyde for 15 min. Then the fixed brain tissue slices and HT22 cells were permeabilized for 5 min using 1% Triton X‐100 (Sigma‐Aldrich, USA) dissolved in PBS. TUNEL staining was executed by following the instructions, using a one‐step TUNEL apoptosis assay kit (Meilunbio, China). Red fluorescence was utilized to identify apoptotic cells, while 4′, 6‐diamidino‐2‐phenylindole (DAPI) was used to counterstain the nuclei. The fluorescence microscope (Carl Zeiss, Germany) was used to obtain images. For flow cytometry, apoptotic cells were determined with the Annexin V‐Alexa Fluor 488/PI apoptosis detection kit (Yeasen, China) by following the instructions. EDTA‐free trypsin (Gibco, USA) was added to HT22 cells (2.5 × 10^5 cells). The cells were collected and washed with pre‐cooling PBS 2 times, then suspended in 250 µL 1× binding buffer. 100 µL cell suspension was dyed with 5 µL Annexin V‐Alexa Fluor 488 and 10 µL PI and plunged into darkness at room temperature for 15 min. Then the cell suspension was mixed with 400 µL of 1× binding buffer. Cell apoptosis was immediately determined by Cytek Aurora (Cytek Biosciences, USA).
Cells and tissues were homogenized in RIPA buffer (Beyotime, China) containing protease inhibitors (Biovision, USA) on ice for 30 min. After centrifugation (13000 r min^−1, 4 °C) for 10 min, the resulting supernatant was collected. The protein concentrations were determined by a BCA protein assay kit (Thermo Scientific, USA). After separating a 10% sodium dodecyl sulfate (SDS)‐polyacrylamide gel, protein on the gel was then transferred onto nitrocellulose membranes (Merck, USA), which were blocked with 5% bovine serum albumin for 1 h to prevent non‐specific binding. Then, the anti‐caspase 3 antibody (catalog no. 9662, Cell Signaling Technology, USA), anti‐Bcl‐2 antibody (catalog no. GTX100064, GeneTex, USA), anti‐G3BP1 antibody (catalog no. 66486‐1‐Ig, Proteintech, China), anti‐β‐tubulin antibody (catalog no. 66240‐1‐Ig, Proteintech, China), and anti‐β‐actin antibody (catalog no. 66009‐1‐Ig, Proteintech, China) were used for treating the membrane overnight at 4 °C. Bound antibodies were detected with the species‐appropriate horseradish peroxidase‐labeled secondary antibody (Jackson ImmunoResearch, USA) using ECL reagents (ShareBio, China). Protein‐specific signals were detected using a Bio‐Rad Imager (Bio‐Rad, USA), and the bands were quantified by densitometric analysis software (ImageJ). β‐tubulin or β‐actin was used as a loading control.
Cerebral infarction volume was evaluated by Nissl staining or 2,3,5‐triphenyltetrazolium chloride staining. The infarct volume was computed using image‐processing software (Image J), and the percentage of the infarct volume was calculated according to our previous studies.^[ [10] ^] For Nissl staining, the fixed brain tissue slices were washed twice with ultrapure water for 2 min each time. Next, they were stained with Nissl staining solution (Beyotime, China) at 37 °C for 10 min, washed twice with ultrapure water, washed once with 95% ethanol, and washed twice with 70% ethanol. […]

[3] = Pharmacokinetic study in mice, i.p. injection; assay type: in vivo; settings: C57BL/6, mouse, ip, 48 mg kg^−1 i.p., plasma, mean ± S.D., n = 3
Experimental: Pharmacokinetic analyses were performed using a LC‐40D XS HPLC system (Shimadzu, Japan) coupled with a Sciex Triple Quad 5500 mass spectrometer (AB SCIEX, USA). Tested compounds PB3 and 6c were administered by i.p. injection (48 mg kg^−1, formulation solvent: normal saline). Blood samples were drawn from the retro‐orbital vein at 0.083, 0.25, 0.5, 1, 2, 4, 8, and 24 h post‐injection with EDTA dipotassium salt as an anticoagulant. Subsequently, the plasma fractions were collected in Eppendorf tubes and centrifuged at 4000 g for 5 min at 4 °C and stored at −80 °C for analysis. Brain tissue was mixed with four‐fold normal saline for homogenization (10 s per time with a 10 s interval for 3–5 times). Then, the mixture was centrifuged at 4000 g for 5 min at 4 °C, and the supernatant was stored at −80 °C for analysis. For sample preparation, the desired serial concentrations of working solutions were achieved by diluting a stock solution of analyte with 50% methanol in water solution. 2 µL of working solutions were added to 10 µL of the blank C57BL/6 mouse plasma/brain homogenate to achieve calibration standards of 10–10 000 ng mL^−1 (10, 20, 100, 200, 1000, 2000, 4000, 10 000 ng mL^−1) in a total volume of 12 µL. Three quality control samples at 20 ng mL^−1, 1600 ng mL^−1, and 8000 ng mL^−1 for plasma were prepared independently of those used for the calibration curves. These QC samples were prepared on the day of analysis in the same way as calibration standards.

[4] = 48 mg kg^−1 i.p., compared to the model group

## Oc1cc(O)c2c(c1)O[C@H](c1ccc(O)c(O)c1)[C@@H](O)[C@@H]2c1c(O)cc(O)c2c1O[C@H](c1ccc(O)c(O)c1)[C@@H](O)C2 [Compound 1, procyanidin B3]
[1]
  50% cytotoxic concentration: over 200 µM
[2]
  SG levels in the ischemic cortex / ischemic brain tissue: significantly enhanced SG levels
[2]; 48 mg kg^−1 i.p., 1.5 h MCAO, 24 h after reperfusion
  neurological deficit score: improved neurological deficits
[2]; 48 mg kg^−1 i.p., 1.5 h MCAO, 24 h reperfusion, Nissl staining
  infarct volume: significantly reduced
[2]; [4]
  apoptosis level (TUNEL staining of frozen brain sections): significantly reduced
  expression level of Bcl‐2 in the ischemic cortex: increased
  expression level of cleaved caspase‐3 in the ischemic cortex: decreased
[3]
  AUC(0-inf): 22300 ± 1970 ng·h/mL
  AUC(0-t): 22200 ± 1940 ng·h/mL
  Cmax: 30400 ± 1790 ng/mL
  MRT inf: 1.42 ± 0.06 h
  half-life: 4.43 ± 0.34 h

## CC(C)c1c(O)cc(O)c2c1O[C@H](c1ccc(O)c(O)c1)[C@@H](O)[C@@H]2c1c(O)cc(O)c2c1O[C@H](c1ccc(O)c(O)c1)[C@@H](O)C2 [Compound 6c, 8‐Isopropyl‐(+)‐Catechin‐(4α,8)‐(+)‐Catechin]
[1]
  50% cytotoxic concentration: over 200 µM
[2]
  SG levels in the ischemic cortex / ischemic brain tissue: mediate SG upregulation
[2]; 48 mg kg^−1, 1.5 h of MCAO and 24 h of reperfusion
  neuroprotective activity compared with the model group: best neuroprotective activity
[2]; 1 h ischemia, i.p. injection after reperfusion, 24 h after reperfusion
  reduction of infarct volume: ≈ 30%
[2]; 1 h ischemia, i.p. injection after reperfusion, 24 h after reperfusion, preliminary screening
  neurological deficit score: more pronounced trend toward improving neurological deficits
[2]; 1.5 h of MCAO and 24 h of reperfusion
  infarct area and neurological function at different doses: therapeutic effect on ischemic injury in a dose‐dependent manner
[3]
  AUC(0-inf): 10400 ± 1280 ng·h/mL
  AUC(0-t): 10200 ± 1250 ng·h/mL
  Cmax: 25200 ± 2500 ng/mL
  MRT inf: 0.76 ± 0.03 h
  half-life: 2.01 ± 0.26 h
